# Test results: US8367695B2, “Condensed tetrahydroquinoline derivative and use thereof for medical purposes” (Mitsubishi Tanabe Pharma Corporation, priority 2007, dated 2013)
# Where two headings read alike, the source gives them in different places.
# Biological target: T1, Glucocorticoid Receptor (GR), CHO-GRE-Luc #35 cells (Cricetulus griseus, UniProt A0A9J7F8I2)
# T1 sequence (A0A9J7F8I2 1-774): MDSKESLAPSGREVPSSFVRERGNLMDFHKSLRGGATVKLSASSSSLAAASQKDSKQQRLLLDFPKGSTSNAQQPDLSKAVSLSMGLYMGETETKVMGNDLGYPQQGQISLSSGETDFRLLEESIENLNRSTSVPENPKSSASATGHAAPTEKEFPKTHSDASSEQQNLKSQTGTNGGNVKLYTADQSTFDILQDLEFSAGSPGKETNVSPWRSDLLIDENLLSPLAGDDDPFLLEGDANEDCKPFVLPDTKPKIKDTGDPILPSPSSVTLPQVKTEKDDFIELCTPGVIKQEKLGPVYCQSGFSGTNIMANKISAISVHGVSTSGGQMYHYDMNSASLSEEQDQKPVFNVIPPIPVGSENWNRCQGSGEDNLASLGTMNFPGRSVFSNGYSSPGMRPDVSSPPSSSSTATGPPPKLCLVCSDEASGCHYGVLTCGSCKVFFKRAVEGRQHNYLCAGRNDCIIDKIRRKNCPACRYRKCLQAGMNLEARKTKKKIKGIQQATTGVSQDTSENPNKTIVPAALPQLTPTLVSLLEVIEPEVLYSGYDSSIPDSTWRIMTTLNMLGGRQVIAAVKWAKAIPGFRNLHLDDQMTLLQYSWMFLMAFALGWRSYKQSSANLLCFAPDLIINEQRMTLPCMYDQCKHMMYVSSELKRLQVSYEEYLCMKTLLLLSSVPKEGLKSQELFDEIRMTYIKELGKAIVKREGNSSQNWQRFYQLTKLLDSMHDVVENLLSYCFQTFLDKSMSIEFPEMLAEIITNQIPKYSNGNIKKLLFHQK
# Assay: Glucocorticoid receptor function test using transgenic-recombinant cell (GRE-luciferase)
# Assay type: cell-based
# Description: Glucocorticoid Receptor Function Test Using Transgenic-Recombinant Cell
# Transgenic-recombinant cell was prepared by our company (Yokohama, JP). In Hokkaido System Science Co., Ltd., a cis-element wherein two glucocorticoid responsive elements (GRE) present in the […] promoter region of mouse were connected in tandem was produced on order from synthetic DNA. The gene was incorporated into a plasmid vector having a gene encoding luciferase enzyme. The plasmid was incorporated into CHO-K1 cell to give a transfectant. The expression cell (CHO-GRE-Luc #35) produces luciferase instead of the object protein under regulation of a transcription region involved in the expression of the object protein. That is, using the cell, a substance that controls production of the object protein can be screened for by replacing the substance with the luciferase activity. Fetal Bovine Serum (FBS), L-glutamine, penicillin-streptomycin solution, PBS(−), trypsin-EDTA solution, Opti-MEM medium and G418 were obtained from GIBCO (Auckland, N.Z.). A 10 cm dish and DMEM:HAM′S F12 medium were obtained from IWAKI (Chiba, JP). A 96 well white plate was obtained from Corning (Corning, N.Y.). Bright-Glo was obtained from Promega (Madison, US). Dexamethasone was obtained from Sigma Chemicals (St. Louis, Mo.).
# CHO-GRE-Luc #35 cells were cultured for several days in a 10 cm dish in a medium (10% FBS/DMEM:HAM'S F12/2.5 mM L-glutamine/50 U/mL penicillin/25 μg/mL streptomycin/500 μg/mL G418). Sub-confluent cells were washed with a suitable amount of PBS(−), 1 ml of Trypsin-EDTA was added and the cells were stood still in a CO2 incubator at 37° C. for 3 min. A 10-fold amount of Opti-MEM medium was added to give a suspension, which was placed in a centrifugal tube and centrifuged (25° C., 1,000 rpm, 5 min). The supernatant was removed, and the cells were suspended in 5 ml of Opti-MEM medium and counted.
# Storage solutions (5-20 mM) of the compound were prepared with DMSO. The storage solutions were diluted with DMSO to 1 mM, and further diluted 100-fold with distilled water or Opti-MEM medium to give solutions. The preparations were diluted with 1% DMSO solution to each concentration. As GR agonist, 10 nM dexamethasone was used. 0.2% DMSO was present at the time of the function assay.
# The prepared compound solutions (evaluation compound solution or 1% DMSO solution 10 μL+dexamethasone or 1% DMSO solution 10 μL) were added to the plate. After the addition, the place was stood still in a CO2 incubator at 37° C. for about 6 hr. After the reaction, Bright-Glo was added at 20 μL/well, and the mixture was gently shaken and measured by a microplate luminometer (Turner Designs Instrument).
# The IC50 value (nM) of the evaluation compound against GR stimulation with dexamethasone was calculated using Prism 3.0 as an analysis software and assuming one-site competition.
# [1] = against GR stimulation with 10 nM dexamethasone, luciferase, about 6 hr, read-out: GR (IC50: nM)
SMILES,IC50 [1],IC50
"Cc1noc(C)c1-c1cc2c(c3c1CCC3)NC(C)(C)C(=O)C2(C)C [Example 2, 6-(3,5-dimethylisoxazol-4-yl)-2,2,4,4-tetramethyl-2,3,4,7,8,9-hexahydro-1H-cyclopenta[h]quinolin-3-one]",30 nM,
"Cc1nnn(C)c1-c1cc2c(c3c1CCC3)NC(C)(C)C(=O)C2(C)C [Example 4, 6-(3,5-dimethyl-3H-[1,2,3]triazol-4-yl)-2,2,4,4-tetramethyl-2,3,4,7,8,9-hexahydro-1H-cyclopenta[h]quinolin-3-one]",86 nM,
"CC1(C)Nc2c(cc(-c3ccnc4cc[nH]c34)c3c2CCC3)C(C)(C)C1=O [Example 13, 2,2,4,4-tetramethyl-6-(1H-pyrrolo[3,2-b]pyridin-7-yl)-2,3,4,7,8,9-hexahydro-1H-cyclopenta[h]quinolin-3-one]",31 nM,
"CC1(C)Nc2c(cc(-c3cccc4nccn34)c3c2CCC3)C(C)(C)C1=O [Example 14, 6-(imidazo[1,2-a]pyridin-5-yl)-2,2,4,4-tetramethyl-2,3,4,7,8,9-hexahydro-1H-cyclopenta[h]quinolin-3-one]",21 nM,
"CC1(C)Nc2c(cc(-c3cccc4nncn34)c3c2CCC3)C(C)(C)C1=O [Example 17, 2,2,4,4-tetramethyl-6-([1,2,4]triazolo[4,3-a]pyridin-5-yl)-2,3,4,7,8,9-hexahydro-1H-cyclopenta[h]quinolin-3-one]",,91 nM
"CC1(C)Nc2c(cc(-c3cccc4ncccc34)c3c2CCC3)C(C)(C)C1=O [Example 20, 2,2,4,4-tetramethyl-6-(quinolin-5-yl)-2,3,4,7,8,9-hexahydro-1H-cyclopenta[h]quinolin-3-one]",74 nM,
"CC1(C)Nc2c(cc(-c3ccnc4ncccc34)c3c2CCC3)C(C)(C)C1=O [Example 21, 2,2,4,4-tetramethyl-6-([1,8]naphthyridin-4-yl)-2,3,4,7,8,9-hexahydro-1H-cyclopenta[h]quinolin-3-one]",53 nM,
"C=C1C(C)(C)Nc2c(cc(-c3c(C)ncn3C)c3c2CCC3)C1(C)C [Example 29, 6-(3,5-dimethyl-3H-imidazol-4-yl)-2,2,4,4-tetramethyl-3-methylene-2,3,4,7,8,9-hexahydro-1H-cyclopenta[h]quinoline]",69 nM,
"C=CCC1(C)C(=O)C(C)(C)Nc2c1cc(-c1ccc(O)cc1C)c1c2CCC1 (stereo not shown) [Example 50, 4-allyl-6-(4-hydroxy-2-methylphenyl)-2,2,4-trimethyl-2,3,4,7,8,9-hexahydro-1H-cyclopenta[h]quinolin-3-one]",61 nM,
"C=CCC1(C)C(=O)C(C)(C)Nc2c1cc(-c1c(C)noc1C)c1c2CCC1 (stereo not shown) [Example 51, 4-allyl-6-(3,5-dimethylisoxazol-4-yl)-2,2,4-trimethyl-2,3,4,7,8,9-hexahydro-1H-cyclopenta[h]quinolin-3-one]",33 nM,
"C=CCC1(C)C(=O)C(C)(C)Nc2c1cc(-c1cccc3nccn13)c1c2CCC1 (stereo not shown) [Example 57, 4-allyl-6-(imidazo[1,2-a]pyridin-5-yl)-2,2,4-trimethyl-2,3,4,7,8,9-hexahydro-1H-cyclopenta[h]quinolin-3-one]",69 nM,
"CCC1(C)C(=O)C(C)(C)Nc2c1cc(-c1cccc3nccn13)c1c2CCC1 (stereo not shown) [Example 58, 4-ethyl-6-(imidazo[1,2-s]pyridin-5-yl)-2,2,4-trimethyl-2,3,4,7,8,9-hexahydro-1H-cyclopenta[h]quinolin-3-one]",37 nM,
"CC#CCC1(C)C(=O)C(C)(C)Nc2c1cc(-c1cccc3nccn13)c1c2CCC1 (stereo not shown) [Example 63, 4-(2-butynyl)-6-(imidazo[1,2-a]pyridin-5-yl)-2,2,4-trimethyl-2,3,4,7,8,9-hexahydro-1H-cyclopenta[h]quinolin-3-one]",48 nM,
"Cc1noc(C)c1-c1cc2c(c3c1OCO3)NC(C)(C)C(=O)C2(C)C [Example 69, 4-(3,5-dimethylisoxazol-4-yl)-6,6,8,8-tetramethyl-6,7,8,9-tetrahydro-[1,3]dioxolo[4,5-h]quinolin-7-one]",77 nM,
"CC1(C)Nc2c(cc(-c3cccc4nccn34)c3c2OCO3)C(C)(C)C1=O [Example 71, 4-(imidazo[1,2-a]pyridin-5-yl)-6,6,8,8-tetramethyl-6,7,8,9-tetrahydro-[1,3]dioxolo[4,5-h]quinolin-7-one]",59 nM,
"CC1(C)Nc2c(cc(-c3cccc4ncccc34)c3c2OCO3)C(C)(C)C1=O [Example 72, 6,6,8,8-tetramethyl-4-(quinolin-5-yl)-6,7,8,9-tetrahydro-[1,3]dioxolo[4,5-h]quinolin-7-one]",40 nM,
"C=CCC1(C)C(=O)C(C)(C)Nc2c1cc(-c1cccc3cc[nH]c13)c1c2OCO1 (stereo not shown) [Example 78, 6-allyl-4-(1H-indol-7-yl)-6,8,8-trimethyl-6,7,8,9-tetrahydro-[1,3]dioxolo[4,5-h]quinolin-7-one]",,94 nM
"CC1(C)Nc2c(cc(-c3cccc4nccn34)c3c2OC(F)(F)O3)C(C)(C)C1=O [Example 82, 2,2-difluoro-4-(imidazo[1,2-a]pyridin-5-yl)-6,6,8,8-tetramethyl-6,7,8,9-tetrahydro-[1,3]dioxolo[4,5-h]quinolin-7-one]",111 nM,
"Cc1noc(C)c1-c1cc2c(c3c1OCC3)NC(C)(C)C(=O)C2(C)C [Example 84, 6-(3,5-dimethylisoxazol-4-yl)-2,2,4,4-tetramethyl-1,2,3,4,8,9-hexahydro-furo[2,3-h]quinolin-3-one]",49 nM,
"CC1(C)Nc2c(cc(-c3cccc4nccn34)c3c2CCO3)C(C)(C)C1=O [Example 88, 6-(imidazo[1,2-a]pyridin-5-yl)-2,2,4,4-tetramethyl-1,2,3,4,8,9-hexahydro-furo[2,3-h]quinolin-3-one]",66 nM,
"CC1(C)Nc2c(cc(-c3ccnc4ncccc34)c3c2CCO3)C(C)(C)C1=O [Example 92, 2,2,4,4-tetramethyl-6-([1,8]naphthyridin-4-yl)-1,2,3,4,8,9-hexahydro-furo[2,3-h]quinolin-3-one]",73 nM,
"Cc1onc(CO)c1-c1cc2c(c3ccoc13)NC(C)(C)C(=O)C2(C)C [Example 94, 6-(3-hydroxymethyl-5-methylisoxazol-4-yl)-2,2,4,4-tetramethyl-1,2,3,4-tetrahydro-furo[2,3-h]quinolin-3-one]",66 nM,
"CC1(C)Nc2c(cc(-c3cccc4nccn34)c3occc23)C(C)(C)C1=O [Example 98, 6-(imidazo[1,2-a]pyridin-5-yl)-2,2,4,4-tetramethyl-1,2,3,4-tetrahydro-furo[2,3-h]quinolin-3-one]",31 nM,
"CC1(C)Nc2c(cc(-c3cncc4nccn34)c3occc23)C(C)(C)C1=O [Example 100, 6-(imidazo[1,2-a]pyrazin-5-yl)-2,2,4,4-tetramethyl-1,2,3,4-tetrahydro-furo[2,3-h]quinolin-3-one]",47 nM,
"CC1(C)Nc2c(cc(-c3cccc4ncccc34)c3occc23)C(C)(C)C1=O [Example 101, 2,2,4,4-tetramethyl-6-(quinolin-5-yl)-1,2,3,4-tetrahydro-furo [2,3-h]quinolin-3-one]",37 nM,
